According to article PMC10180488, “Novel Derivatives of Eugenol as a New Class of PPARγ Agonists in Treating Inflammation: Design, Synthesis, SAR Analysis and In Vitro Anti-Inflammatory Activity” (Molecules, 2023):
“And” between values parts separate entries of the source, which are not always exact repeats. Identical values can stand only once.

Tests used:
[1] = molecular target: egg albumin (Gallus gallus, UniProt P01012); experiment: Albumin denaturation assay; assay type: biochemical, hen; conditions: mean ± SD (n = 3), read-out: Percentage inhibition of denaturation of albumin
Experimental: Inflammation is accompanied by protein denaturation. Tissue protein denaturation is a well-established cause of Inflammatory illnesses. Inflammatory disorders including rheumatoid arthritis, diabetes, and cancer have been linked to the denaturation of proteins. The ability of a substance to stop proteins from becoming denaturized has a role in the prevention of inflammatory disorders. […] Denaturation of proteins is accomplished by keeping the reaction mixture in a water bath at 70 °C for […].
Minor modifications were made to Mizushima and Kobayashi’s and Sakat et al. methodologies. The reaction mixture containing 0.2 mL of egg albumin (from a fresh hen’s egg) is mixed with 2.8 mL of phosphate-buffered saline (PBS, pH 6.4) and 2 mL of synthesized compounds in varying concentrations. The mixture was then heated at 70 °C for 5 min after being incubated at 37 °C for approximately 15–20 min. After cooling, their absorbance was measured at 660 nm spectrometrically. Three duplicates of the experiment were carried out. […] Percentage inhibition = (OD control − OD sample/OD control) × 100

[2] = test system: human red blood cells (HRBC); experiment: HRBC membrane stabilization method; conditions: for HRBC membrane stabilization (percentage protection against HRBC lysis): mean ± SD (n = 3); for IC50: Homo sapiens, Erythrocyte, read-out: IC50 Values, HRBC membrane stabilization method
Experimental: The principle of this procedure is to stabilize the membrane of human red blood cells by hypotonic membrane lysis. […] Lysosomal enzyme levels typically decrease as the HRBC membrane is stabilized.
The packed cells in this blood solution were separated after centrifugation at 3000 rpm [41]. The packed cells were cleaned using an isosaline solution, and then, isosaline was used to prepare a 10% v/v suspension. This HRBC suspension was employed to estimate its anti-inflammatory properties. Different concentrations of the synthesized compounds and the reference standard were each combined with 1 mL of phosphate buffer (pH 7.4), 2 mL of hyposaline, and 0.5 mL of HRBC solution. A total of 2.0 mL of distilled water was utilized as the control. The assay mixtures were all centrifuged at 3000 rpm after 30 min of incubation at 37°C. The following formula was used to determine the percentage of stabilized HRBC membranes. Percentage protection= 100 − (OD sample/OD control) × 100

[3] = molecular target: T1, human PPARγ- LBD (Homo sapiens, UniProt P37231); experiment: Lanthascreen TR-FRET PPARγ competitive binding assay; conditions: for IC50: Lanthascreen TR-FRET competitive binding; for Raw Data / Raw Data - Background: TR-FRET
T1 construct: a mixture of a human PPARγ- LBD labelled with glutathione S-transferase (GST)
T1 sequence (P37231 238-503 limits assumed): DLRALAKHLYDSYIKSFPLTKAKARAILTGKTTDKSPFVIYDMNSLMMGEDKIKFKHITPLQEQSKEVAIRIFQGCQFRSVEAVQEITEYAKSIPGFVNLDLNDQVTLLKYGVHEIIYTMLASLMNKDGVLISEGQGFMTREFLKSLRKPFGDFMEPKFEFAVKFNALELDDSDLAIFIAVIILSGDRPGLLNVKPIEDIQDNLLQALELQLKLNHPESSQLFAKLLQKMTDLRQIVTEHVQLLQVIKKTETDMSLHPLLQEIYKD
Experimental: Using the Lanthasreen TR-FRET assay, the synthesized compounds were first preliminary tested for the PPARγ binding affinity. […] A chemical under test displaces the tracer from PPAR-LBD, which lowers the TR-FRET ratio and decreases the FRET signal Figure 8 [33].
A multimode low-volume proxy plate reader was used to read the plates after one hour of incubation. Then, a mixture of a human PPARγ- LBD labelled with glutathione S-transferase (GST), a fluorescent small pan-PPAR ligand (FluormoneTM Pan-PPAR Green), and terbium-labeled anti-GST antibody was added.

Sequence of egg albumin (P01012 2-386): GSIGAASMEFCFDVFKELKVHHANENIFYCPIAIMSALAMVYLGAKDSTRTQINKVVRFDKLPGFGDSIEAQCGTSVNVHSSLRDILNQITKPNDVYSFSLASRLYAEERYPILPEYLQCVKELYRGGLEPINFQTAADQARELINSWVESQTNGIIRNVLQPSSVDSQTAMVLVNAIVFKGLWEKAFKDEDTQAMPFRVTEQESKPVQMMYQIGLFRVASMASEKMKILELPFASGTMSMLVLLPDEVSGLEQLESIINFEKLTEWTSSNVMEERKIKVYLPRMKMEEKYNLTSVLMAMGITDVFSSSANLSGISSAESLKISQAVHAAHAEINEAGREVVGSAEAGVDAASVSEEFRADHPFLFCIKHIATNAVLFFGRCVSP

| Structure (SMILES) | inhibition at 6.25 µM [1] [%] | inhibition at 12.5 µM [1] [%] | inhibition at 25 µM [1] [%] | inhibition at 50 µM [1] [%] | inhibition at 100 µM [1] [%] | inhibition at 200 µM [1] [%] | inhibition at 400 µM [1] [%] | HRBC membrane stabilization (percentage protection against HRBC lysis) ([2]; 6.25 µM) [%] | HRBC membrane stabilization (percentage protection against HRBC lysis) ([2]; 12.5 µM) [%] | HRBC membrane stabilization (percentage protection against HRBC lysis) ([2]; 25 µM) [%] | HRBC membrane stabilization (percentage protection against HRBC lysis) ([2]; 50 µM) [%] | HRBC membrane stabilization (percentage protection against HRBC lysis) ([2]; 100 µM) [%] | HRBC membrane stabilization (percentage protection against HRBC lysis) ([2]; 200 µM) [%] | HRBC membrane stabilization (percentage protection against HRBC lysis) ([2]; 400 µM) | IC50 [2] [µM] | IC50 [3] [µM] | Raw Data ([3]; 0.0000512 µM) [RLU] | Raw Data - Background ([3]; 0.0000512 µM) [RLU] | Raw Data ([3]; 0.000256 µM) [RLU] | Raw Data - Background ([3]; 0.000256 µM) [RLU] | also measured |
| --- | --- | --- | --- | --- | --- | --- | --- | --- | --- | --- | --- | --- | --- | --- | --- | --- | --- | --- | --- | --- | --- |
| C=CCc1ccc(OCC(=O)Nc2cccc(C(F)(F)F)c2)c(OC)c1 [Compound 1d, 2-(4-Allyl-2-methoxyphenoxy)-N-[(3-trifluoromethyl)phenyl]acetamide] | 4.21 ± 0.37 | 8.79 ± 0.32 | 14 ± 0.31 | 18.8 ± 0.39 | 32.46 ± 0.32 | 38.49 ± 0.37 | 49.09 ± 0.18 | 8.85 ± 0.36 | 17.77 ± 0.46 | 28.72 ± 0.46 | 34.74 ± 0.56 | 45.51 ± 0.28 | 56.45 ± 0.31 | 67.40 ± 0.28% | 66.3 | 6.47 | 2.02 | 1.876 | 2.04 | 1.881 | Raw Data ([3]; 0.00128 µM): 2 RLU; Raw Data - Background ([3]; 0.00128 µM): 1.79 RLU; Raw Data ([3]; 0.0064 µM): 2.061 RLU; Raw Data - Background ([3]; 0.0064 µM): 1.836 RLU; Raw Data ([3]; 0.032 µM): 1.99 RLU; Raw Data - Background ([3]; 0.032 µM): 1.875 RLU; Raw Data ([3]; 0.16 µM): 1.945 RLU; Raw Data - Background ([3]; 0.16 µM): 1.78 RLU; Raw Data ([3]; 0.8 µM): 2.018 RLU; Raw Data - Background ([3]; 0.8 µM): 1.89 RLU; Raw Data ([3]; 4 µM): 1.542 RLU; Raw Data - Background ([3]; 4 µM): 1.307 RLU; Raw Data ([3]; 20 µM): 0.593 RLU; Raw Data - Background ([3]; 20 µM): 0.497 RLU; Raw Data ([3]; 100 µM): 0.6527 RLU; Raw Data - Background ([3]; 100 µM): 0.4876 RLU |
| C=CCc1ccc(OCC(=O)Nc2ccccc2)c(OC)c1 [Compound 1a, 2-(4-Alyl-2-methoxyphenoxy)-N-phenylacetamide] | 1.67 ± 0.37 | 5.32 ± 0.37 | 10.2 ± 0.24 | 14.5 ± 0.43 | 19.2 ± 0.24 | 25.1 ± 0.31 | 32.3 ± 0.37 | 4.79 ± 0.48 | 10.45 ± 0.38 | 21.40 ± 0.36 | 28.78 ± 0.66 | 37.88 ± 0.28 | 47.23 ± 0.48 | 60.88% and 60.88 ± 0.36% | 79.5 | 29.8 | 1.916 | 1.681 | 1.915 | 1.68 | Raw Data ([3]; 0.00128 µM): 1.916 RLU; Raw Data - Background ([3]; 0.00128 µM): 1.681 RLU; Raw Data ([3]; 0.0064 µM): 1.92 RLU; Raw Data - Background ([3]; 0.0064 µM): 1.685 RLU; Raw Data ([3]; 0.032 µM): 2.058 RLU; Raw Data - Background ([3]; 0.032 µM): 1.823 RLU; Raw Data ([3]; 0.16 µM): 1.971 RLU; Raw Data - Background ([3]; 0.16 µM): 1.736 RLU; Raw Data ([3]; 0.8 µM): 1.899 RLU; Raw Data - Background ([3]; 0.8 µM): 1.664 RLU; Raw Data ([3]; 4 µM): 1.717 RLU; Raw Data - Background ([3]; 4 µM): 1.483 RLU; Raw Data ([3]; 20 µM): 1.047 RLU; Raw Data - Background ([3]; 20 µM): 0.813 RLU; Raw Data ([3]; 100 µM): 0.245 RLU; Raw Data - Background ([3]; 100 µM): 0.01 RLU |
